# Assay results reported in ChEMBL document CHEMBL1649134, “Occurrence of efflux mechanism and cephalosporinase variant in a population of Enterobacter aerogenes and Klebsiella pneumoniae isolates producing extended-spectrum beta-lactamases” (2009).
# Columns and labels:
# [1] = system: Klebsiella aerogenes; assay: Antimicrobial activity against multidrug resistant Enterobacter aerogenes isolate 1 by broth dilution method; assay type: functional
# [2] = system: Klebsiella aerogenes; assay: Antimicrobial activity against multidrug resistant Enterobacter aerogenes isolate 2 by broth dilution method; assay type: functional
# [3] = system: Klebsiella aerogenes; assay: Antimicrobial activity against multidrug resistant Enterobacter aerogenes isolate 3 by broth dilution method; assay type: functional
# [4] = system: Klebsiella aerogenes; assay: Antimicrobial activity against multidrug resistant Enterobacter aerogenes isolate 4 by broth dilution method; assay type: functional
# [5] = system: Klebsiella aerogenes; assay: Antimicrobial activity against multidrug resistant Enterobacter aerogenes isolate 5 by broth dilution method; assay type: functional
# [6] = system: Klebsiella aerogenes; assay: Antimicrobial activity against multidrug resistant Enterobacter aerogenes isolate 6 by broth dilution method; assay type: functional
# [7] = system: Klebsiella aerogenes; assay: Antimicrobial activity against multidrug resistant Enterobacter aerogenes isolate 7 by broth dilution method; assay type: functional
# [8] = system: Klebsiella aerogenes; assay: Antimicrobial activity against multidrug resistant Enterobacter aerogenes isolate 8 by broth dilution method; assay type: functional
# [9] = system: Klebsiella aerogenes; assay: Antimicrobial activity against multidrug resistant Enterobacter aerogenes isolate 9 by broth dilution method; assay type: functional
# [10] = system: Klebsiella aerogenes; assay: Antimicrobial activity against multidrug resistant Enterobacter aerogenes isolate 10 by broth dilution method; assay type: functional
# [11] = system: Klebsiella aerogenes; assay: Antimicrobial activity against multidrug resistant Enterobacter aerogenes isolate 11 by broth dilution method; assay type: functional
# [12] = system: Klebsiella aerogenes; assay: Antimicrobial activity against multidrug resistant Enterobacter aerogenes isolate 12 by broth dilution method; assay type: functional
# [13] = system: Klebsiella aerogenes; assay: Antimicrobial activity against multidrug resistant Enterobacter aerogenes isolate 13 by broth dilution method; assay type: functional
# [14] = system: Klebsiella aerogenes; assay: Antimicrobial activity against multidrug resistant Enterobacter aerogenes isolate 14 by broth dilution method; assay type: functional
# [15] = system: Klebsiella aerogenes; assay: Antimicrobial activity against multidrug resistant Enterobacter aerogenes isolate 15 by broth dilution method; assay type: functional
# [16] = system: Klebsiella aerogenes; assay: Antimicrobial activity against multidrug resistant Enterobacter aerogenes isolate 16 by broth dilution method; assay type: functional
# [17] = system: Klebsiella aerogenes; assay: Antimicrobial activity against multidrug resistant Enterobacter aerogenes isolate 17 by broth dilution method; assay type: functional
# [18] = system: Klebsiella aerogenes; assay: Antimicrobial activity against multidrug resistant Enterobacter aerogenes isolate 18 by broth dilution method; assay type: functional
# [19] = system: Klebsiella aerogenes; assay: Antimicrobial activity against multidrug resistant Enterobacter aerogenes isolate 19 by broth dilution method; assay type: functional
# [20] = system: Klebsiella aerogenes; assay: Antimicrobial activity against multidrug resistant Enterobacter aerogenes isolate 20 by broth dilution method; assay type: functional
# [21] = system: Klebsiella aerogenes; assay: Antimicrobial activity against multidrug resistant Enterobacter aerogenes isolate 21 by broth dilution method; assay type: functional
# [22] = system: Klebsiella aerogenes; assay: Antimicrobial activity against multidrug resistant Enterobacter aerogenes isolate 22 by broth dilution method; assay type: functional
# [23] = system: Klebsiella aerogenes; assay: Antimicrobial activity against multidrug resistant Enterobacter aerogenes isolate 23 by broth dilution method; assay type: functional
# [24] = system: Klebsiella aerogenes; assay: Antimicrobial activity against multidrug resistant Enterobacter aerogenes isolate 24 by broth dilution method; assay type: functional
# [25] = system: Klebsiella aerogenes; assay: Antimicrobial activity against multidrug resistant Enterobacter aerogenes isolate 25 by broth dilution method; assay type: functional
# [26] = system: Klebsiella aerogenes; assay: Antimicrobial activity against multidrug resistant Enterobacter aerogenes isolate 26 by broth dilution method; assay type: functional
# [27] = system: Klebsiella aerogenes; assay: Antimicrobial activity against multidrug resistant Enterobacter aerogenes isolate 27 by broth dilution method; assay type: functional
# [28] = system: Klebsiella pneumoniae; assay: Antimicrobial activity against multidrug resistant Klebsiella pneumoniae ATCC 11296 by broth dilution method; assay type: functional
# [29] = system: Klebsiella pneumoniae; assay: Antimicrobial activity against multidrug resistant Klebsiella pneumoniae isolate 1 by broth dilution method; assay type: functional
# [30] = system: Klebsiella pneumoniae; assay: Antimicrobial activity against multidrug resistant Klebsiella pneumoniae isolate 2 by broth dilution method; assay type: functional
# [31] = system: Klebsiella pneumoniae; assay: Antimicrobial activity against multidrug resistant Klebsiella pneumoniae isolate 3 by broth dilution method; assay type: functional
# [32] = system: Klebsiella pneumoniae; assay: Antimicrobial activity against multidrug resistant Klebsiella pneumoniae isolate 4 by broth dilution method; assay type: functional
# [33] = system: Klebsiella pneumoniae; assay: Antimicrobial activity against multidrug resistant Klebsiella pneumoniae isolate 5 by broth dilution method; assay type: functional
# [34] = system: Klebsiella pneumoniae; assay: Antimicrobial activity against multidrug resistant Klebsiella pneumoniae isolate 6 by broth dilution method; assay type: functional
# [35] = system: Klebsiella pneumoniae; assay: Antimicrobial activity against multidrug resistant Klebsiella pneumoniae isolate 7 by broth dilution method; assay type: functional
# [36] = system: Klebsiella pneumoniae; assay: Antimicrobial activity against multidrug resistant Klebsiella pneumoniae isolate 8 by broth dilution method; assay type: functional
# [37] = system: Klebsiella pneumoniae; assay: Antimicrobial activity against multidrug resistant Klebsiella pneumoniae isolate 9 by broth dilution method; assay type: functional
# [38] = system: Klebsiella pneumoniae; assay: Antimicrobial activity against multidrug resistant Klebsiella pneumoniae isolate 10 by broth dilution method; assay type: functional
# [39] = system: Klebsiella pneumoniae; assay: Antimicrobial activity against multidrug resistant Klebsiella pneumoniae isolate 11 by broth dilution method; assay type: functional
# [40] = system: Klebsiella pneumoniae; assay: Antimicrobial activity against multidrug resistant Klebsiella pneumoniae isolate 12 by broth dilution method; assay type: functional
# [41] = system: Klebsiella pneumoniae; assay: Antimicrobial activity against multidrug resistant Klebsiella pneumoniae isolate 13 by broth dilution method; assay type: functional
# [42] = system: Klebsiella pneumoniae; assay: Antimicrobial activity against multidrug resistant Klebsiella pneumoniae isolate 15 by broth dilution method; assay type: functional
# [43] = system: Klebsiella pneumoniae; assay: Antimicrobial activity against multidrug resistant Klebsiella pneumoniae isolate 16 by broth dilution method; assay type: functional
# [44] = system: Klebsiella aerogenes; assay: Antimicrobial activity against multidrug resistant Enterobacter aerogenes ATCC 15038 by broth dilution method; assay type: functional
# [45] = system: Klebsiella aerogenes; assay: Antimicrobial activity against multidrug resistant Enterobacter aerogenes ATCC 15038 harboring pDrive plasmid by broth dilution method; assay type: functional
# [46] = system: Klebsiella aerogenes; assay: Antimicrobial activity against multidrug resistant Enterobacter aerogenes ATCC 15038 harboring pACM204 plasmid by broth dilution method; assay type: functional
# [47] = system: Klebsiella aerogenes; assay: Antimicrobial activity against multidrug resistant Enterobacter aerogenes ATCC 15038 harboring pDrive plasmid expressing ampC gene by broth dilution method; assay type: functional
# [48] = system: Escherichia coli; assay: Antimicrobial activity against multidrug resistant Escherichia coli ATCC 35218 by broth dilution method; assay type: functional
# [49] = system: Escherichia coli; assay: microbe, parasite or virus in culture; conditions: DH5[alpha]
# Description: Antimicrobial activity against multidrug resistant Escherichia coli DH5[alpha] by broth dilution method
# [50] = system: Escherichia coli; assay: microbe, parasite or virus in culture; conditions: DH5[alpha]; remark: listed apart in the source
# Description: Antimicrobial activity against multidrug resistant Escherichia coli DH5[alpha] harboring pDrive plasmid by broth dilution method
# [51] = system: Escherichia coli; assay: microbe, parasite or virus in culture; conditions: DH5[alpha]; remark: listed apart in the source
# Description: Antimicrobial activity against multidrug resistant Escherichia coli DH5[alpha] harboring pDrive plasmid expressing ampC gene by broth dilution method
# [52] = system: Escherichia coli; assay: microbe, parasite or virus in culture; conditions: DH5[alpha]; remark: listed apart in the source
# Description: Antimicrobial activity against multidrug resistant Escherichia coli DH5[alpha] harboring pACM204 plasmid by broth dilution method
# [53] = system: Escherichia coli; assay: microbe, parasite or virus in culture; conditions: ATCC 35218
# Description: Antimicrobial activity against multidrug resistant Escherichia coli ATCC 35218 harboring pDrive plasmid by broth dilution method
# [54] = system: Escherichia coli; assay: microbe, parasite or virus in culture; conditions: ATCC 35218; remark: listed apart in the source
# Description: Antimicrobial activity against multidrug resistant Escherichia coli ATCC 35218 harboring pDrive plasmid expressing ampC gene by broth dilution method
smiles,measurement,setting,value
CO/N=C(\C(=O)N[C@@H]1C(=O)N2C(C(=O)[O-])=C(C[N+]3(C)CCCC3)CS[C@H]12)c1csc(N)n1,MIC,[1],32 µg/mL
same,MIC,[2],32 µg/mL
same,MIC,[3],16 µg/mL
same,MIC,[4],32 µg/mL
same,MIC,[5],64 µg/mL
same,MIC,[6],4 µg/mL
same,MIC,[7],64 µg/mL
same,MIC,[8],64 µg/mL
same,MIC,[9],32 µg/mL
same,MIC,[10],16 µg/mL
same,MIC,[11],64 µg/mL
same,MIC,[12],128 µg/mL
same,MIC,[13],64 µg/mL
same,MIC,[14],64 µg/mL
same,MIC,[15],16 µg/mL
same,MIC,[16],64 µg/mL
same,MIC,[17],64 µg/mL
same,MIC,[18],32 µg/mL
same,MIC,[19],64 µg/mL
same,MIC,[20],64 µg/mL
same,MIC,[21],128 µg/mL
same,MIC,[22],64 µg/mL
same,MIC,[23],64 µg/mL
same,MIC,[24],128 µg/mL
same,MIC,[25],64 µg/mL
same,MIC,[26],2 µg/mL
same,MIC,[27],128 µg/mL
same,MIC,[28],0.125 µg/mL
same,MIC,[29],64 µg/mL
same,MIC,[30],64 µg/mL
same,MIC,[31],64 µg/mL
same,MIC,[32],64 µg/mL
same,MIC,[33],64 µg/mL
same,MIC,[34],16 µg/mL
same,MIC,[35],64 µg/mL
same,MIC,[36],64 µg/mL
same,MIC,[37],64 µg/mL
same,MIC,[38],64 µg/mL
same,MIC,[39],64 µg/mL
same,MIC,[40],16 µg/mL
same,MIC,[41],2 µg/mL
same,MIC,[42],32 µg/mL
same,MIC,[43],64 µg/mL
same,MIC,[44],0.03 µg/mL
same,MIC,[45],0.25 µg/mL
same,MIC,[46],0.25 µg/mL
same,MIC,[47],32 µg/mL
same,MIC,[48],0.03 µg/mL
same,MIC,[49],0.125 µg/mL
same,MIC,[50],0.5 µg/mL
same,MIC,[51],32 µg/mL
same,MIC,[52],0.25 µg/mL
same,MIC,[53],0.5 µg/mL
same,MIC,[54],32 µg/mL
